Data reported in publication PMC7244133, “Identification of potential dual -targets anti- toxoplasma gondii compounds through structure-based virtual screening and in-vitro studies” (PLoS ONE, 2020).
Converted amounts (≈) assume the structure as drawn. “And” between values parts separate entries of the source, which are not always exact repeats. Equal entries are not always repeated. Where two headings read alike, the source gives them in different places.

How the values were obtained:
[1] = test system: T. gondii tachyzoites RH strain; assay: Treatment of T. gondii-infected Vero cells (MTS-PMS assay); assay type: cell-based, Toxoplasma gondii; conditions: for EC50: Toxoplasma gondii, read-out: EC50 against T. gondii; for Selectivity Index (SI): Vero Cell (EC50)/T. gondii EC50
Procedure: Vero cells were harvested by trypsinization when it reached 80–90% confluence. A volume of 100 μl diluted Vero cells of (6 x 10^4 cells/ml) in GM was cultured in triplicate wells of a 96-well plate and incubated for 24 hours. Then, 100 μl of tachyzoites (3 x 10^5 /ml) in GM2 (comprising DMEM, 0.5% PS and 2% FBS) were added into the Vero cell-seeded wells. A volume of 100 ul the above medium was added to the negative control well and the plate was incubated for six hours. Subsequently, the wells were washed twice with WM to remove non-adherent parasites. A volume of 100 μl of GM2 was added and again incubated for 18 hours. […] The negative control well contained 100 μl Vero cells and PBS in control wells for NCI compounds.
The percent cell viability was proportional to the mortality of T. gondii. The graphs were plotted and analyses their statistical data using Prism 5.0 (GraphPad Software Inc., CA USA) (S2 Dataset and S4 Dataset). […] Selectivity refers to the mean of the EC50 value for Vero cells relative to the mean of the EC50 value of the T. gondii. A P value of less than 0.05 was considered statistically significant and all data points represent the mean of three independent experiments. SI (selectivity index) measures the strength of inhibition against the Vero cells and the T. gondii.
SelectivityIndex(SI)=VeroCell(EC50)/T.gondiiEC50

[2] = test system: Vero cells; assay: Cytotoxicity effect on Vero cells (MTS-PMS assay); assay type: cell-based, African green monkey; conditions: Chlorocebus sabaeus, read-out: EC50 against Vero cells
Procedure: Vero cells were harvested by trypsinization when it reached 80–90% confluence. A volume of 100 μl Vero cells (6 x 10^4 cells/ml) in GM was cultured in triplicate wells of a 96-well plate and incubated for 24 hours.
MTS solution was prepared (2 mg/ml) by dissolving the powder in PBS. Exposure to light was avoided during the preparation. PMS (0.92 mg/ml) was similarly prepared in PBS and both solutions were stored at -20 °C. A volume of 20 μl of MTS solution was added into each well and the cells were incubated for one hour in a CO2 incubator [23, 24]. The absorbance (abs) was then measured at 490 nm using a microplate reader (Thermo Scientific Multiskan®Spectrum, USA). The percentage of cell viability was calculated using the following formula [25, 26]. The graphs were plotted and analyses their statistical data using Prism 5.0 (GraphPad Software Inc., CA USA) (S1 Dataset and S3 Dataset).
%ofcellviability=Opticaldensity(OD)oftreatedcell/Opticaldensity(OD)ofuntreatedcell(cellonly)

[3] = T. gondii-infected Vero cells, 24 hours treatment, MTS-PMS, molar value in brackets
[4] = T. gondii-infected Vero cells, 24 hours treatment, MTS-PMS

Compound	EC50 [1, 3] [µM]	EC50 [1, 4] [µg/mL]	Selectivity Index (SI) [1]	EC50 ([2]; 24 hours treatment, MTS-PMS) [µg/mL]	EC50 against T. gondii [1, 4]	EC50 ([1]; Vero, 24 h)	EC50 ([2]; 24 h) [µg/mL]
Nc1cc(Cl)ccc1N1C(=O)CCC1=O [NSC660301, 1-(2-amino-4-chlorophenyl)pyrrolidine-2,5-dione]	15	3.43	6.5	22.3 (≈ 99.2 µM)			
O=c1[nH]cc(F)c(=O)[nH]1 [5-Fluorouracil, 5-fluorouracil, reference compound]				9.72 (≈ 74.7 µM)			
COc1ccccc1N1C(=O)CC(Sc2cccc(N)c2)C1=O (stereo not shown) [NSC153391, 3-[(3-aminophenyl)sulfanyl]-1-(2-methoxyphenyl)pyrrolidine-2,5-dione]				24.7 (≈ 75.3 µM)	Inactive		
CC1=C(C(N)=O)S(=O)(=O)c2ccccc21 [NSC108972, 3-methyl-1,1-dioxo-1 H -1-benzothiophene-2-carboxamide]	32	7.17	3.9	28 (≈ 126 µM)			
C1CC2CCNC3CCNC(C1)N23 (stereo not shown) [NSC81462, dodecahydro-1,4,9b-triazaphenalene]			12.0			3.24 µg/mL and 17.8 µM	39 (≈ 215 µM)
NCCN1CCNCC1 [NSC38968, 2-(piperazin-1-yl)ethan-1-amine]	37	4.82	4.5	21.5 (≈ 166 µM)			
CCOC1CCc2c(C)nc(N)nc2S1 (stereo not shown) [NSC77468, 7-ethoxy-4-methyl-6,7-dihydro-5H-thiopyrano[2,3-d]pyrimidin-2-amine]	8.5	1.92	25	47.8 (≈ 212 µM)			
NS(=O)(=O)c1ccc(Cl)cc1[N+](=O)[O-] [NSC81213, 4-chloro-2-nitrobenzene-1-sulfonamide]	20	4.75	5.2	24.6 (≈ 104 µM)			
Nc1ccc(C(=O)c2cccs2)cn1 [NSC343344, (6-aminopyridin-3-yl)(thiophen-2-yl)methanone]					Inactive		29.6 (≈ 145 µM)
